# From US20260294964A1, “PHARMACEUTICALS CONTAINING CHELATORS WITH STRONG ZN IONS-HOLDING FEATURE FOR THE TREATMENT OF SYMPTOMS AND DISEASES CAUSED BY MICROORGANISMS/DISEASES CAUSED BY TOXINS OR NEUROTOXINS/CANCER/SEVERAL SYNDROMES” (priority 2023, published 2026)
# Entries after “also recorded” stand apart in the source; their conditions may differ. Where two headings read alike, the source gives them in different places.
# Columns and labels:
# [1] = system: microorganisms that decompose organic matter (bacteria/fungi); assay: Culture of microorganisms that decompose organic matter; assay type: cell-based; conditions: media with growth promoting substances
# [2] = system: loss of taste in Covid 19; assay: Treatment of loss of taste in Covid 19; assay type: in vivo, human; conditions: solution containing 2% Ca EDTA sucked for a few minutes
# [3] = Safety of Ca EDTA in adults; assay type: in vivo, human; conditions: 20 g for each time, 4 hours apart
# Boraras Micros fish [4] = assay: Protection of Boraras Micros fish from CuCl2 by chelators; assay type: in vivo; conditions: 0.4 ppm CuCl2 + a few ppm to more than 10 ppm of chelator
# Boraras Micros fish [5] = system: Boraras Micros fish
# [6] = system: pathogenic microorganisms; assay: Inhibition/killing of pathogenic microorganisms in water with Boraras Micros fish infected from dead fish; assay type: in vivo; conditions: for appearance of water after 6 days / fish outcome after 6 days: 10 ppm Ampicillin / 20 ppm Bactrim / 100 ppm triethylenetetramine diethylenetriaminepentaacetate / 300 Mg EDTA / 600 ppm Ca EDTA / combinations as in label
# [7] = Metallic Cu suspension test with 1% Na ascorbate (Cu ion complex formation); assay type: physicochemical; conditions: 0.1% CuCl2, alone or with several percent of chelator; excess 1% Na ascorbate
# [8] = assay type: physicochemical, animal/human blood; conditions: for volume that completely dissolves Zn-blood complex suspension: suspension from 1.4 ml 0.1% ZnCl2 in 100 ml 0.9% NaCl with 1% blood; for amount needed to completely dissolve Zn-blood complex suspension, compared with lysine phosphate/lysine chloride/arginine phosphate/arginine chloride: suspension with 2 ppm ZnCl2
# avian influenza = system: avian influenza; set-up: species or system chicken; conditions: in vivo
# [9] = system: dry eyes/eye pain/red eyes; assay: Treatment of dry eyes/eye pain/red eyes; assay type: in vivo, human; conditions: 0.1% eye drops, 2 to 6 times a day
# mice = assay type: in vivo, mouse; conditions: 0.3% in drinking water from 12 hours after flocoumafen
# Boraras Micros fish [10] = assay: Neutralization of toxins/neurotoxins in Boraras Micros fish; assay type: in vivo
# [11] = system: toxins/neurotoxins; microorganisms; conditions: processed foods
# headache = assay: Treatment of headaches of unknown cause; assay type: in vivo, human; conditions: 0.5 g oral, adult
# [12] = 2000 ppm triethylenetetramine diethylnenepentaacetate / 3000 ppm Mg EDTA / 2000 ppm Cu EDTA / 12000 ppm Ca EDTA, mixtures at concentrations in label
molecule,measurement,setting,value
"O=C(O)CN(CCN(CC(=O)O)CC(=O)O)CC(=O)O.[Ca] [Ca EDTA, Ethylenediaminetetraacetic acid calcium]",concentration at which proliferation of microorganisms is strongly inhibited,[1],700 ppm
same,recovery of sweet taste,[2],recover immediately afterwards
same,amount used by adults in 24 hours without side effects,[3],under 120 g
same,survival of fish in CuCl2 with chelator,Boraras Micros fish [4],will not die after several weeks
same,survival of fish,Boraras Micros fish [5]; in vivo,lived for many days
same,time after which fish did not die,Boraras Micros fish [5]; in vivo,≥ 10 days
same,toxicity / safety to host cells,Boraras Micros fish [5]; in vivo,highly safe
same,appearance of water after 6 days,[6]; calcium,clear; also recorded: transparent
same,fish outcome after 6 days,[6]; calcium,lived; also recorded: did not die
"O=C(O)CN(CCN(CC(=O)O)CC(=O)O)CC(=O)O.[Mg] [Mg EDTA, Ethylenediaminetetraacetic acid magnesium]",appearance of metallic Cu suspension,[7],metallic Cu suspension will not appear
same,volume that completely dissolves Zn-blood complex suspension,[8]; 0.1% solution,2 mL
same,"amount needed to completely dissolve Zn-blood complex suspension, compared with lysine phosphate/lysine chloride/arginine phosphate/arginine chloride",[8],tens to hundreds of times lower
same,state of chickens after 12 hours,avian influenza,stopped the lethargic state and they returned to eating normally
same,survival of fish in CuCl2 with chelator,Boraras Micros fish [4],will not die after several weeks
same,time after which fish did not die,Boraras Micros fish [5]; 800 ppm EDTA Cu / 3000 ppm EDTA Mg / 12000 ppm EDTA Ca,≥ 10 days
same,survival of fish,Boraras Micros fish [5]; [12],lived for many days
same,appearance of water after 6 days,[6],clear; also recorded: transparent
same,fish outcome after 6 days,[6],lived; also recorded: did not die
triethylenetetramine diethylenetriaminepentaacetate,appearance of metallic Cu suspension,[7],metallic Cu suspension will not appear
same,dry eyes/eye pain symptoms a few minutes after instilling,[9],no longer exist
same,red eyes symptoms,[9],decrease after a few hours
same,concentration at which proliferation of microorganisms is strongly inhibited,[1],100 ppm
same,volume that completely dissolves Zn-blood complex suspension,[8]; concentration of solution not given,1.2 mL
same,"amount needed to completely dissolve Zn-blood complex suspension, compared with lysine phosphate/lysine chloride/arginine phosphate/arginine chloride",[8],tens to hundreds of times lower
same,survival of mice fed flocoumafen,mice,after many days the mice still lived
same,survival of fish with Alpha Cypermethrin,Boraras Micros fish [10]; 0.2 ppm Alpha Cypermethrin + 50-300 ppm chelator,lived for many days
same,survival of fish with Methylamine Avermectin,Boraras Micros fish [10]; 0.2 ppm Methylamine Avermectin + 50-300 ppm chelator,lived for many days
same,survival of fish with Bromadiolone,Boraras Micros fish [10]; 0.3 ppm Bromadiolone + 50-300 ppm chelator,lived for many days
same,survival of fish with phenylperazole,Boraras Micros fish [10]; 1.0 ppm phenylperazole + 50-300 ppm chelator,lived for many days
same,survival of fish with flocoumafen,Boraras Micros fish [10]; 1.25 ppm flocoumafen + 50-300 ppm chelator,lived for many days (up to weeks)
same,survival of fish with Emamectin benzoate,Boraras Micros fish [10]; 2.5 ppm Emamectin benzoate + 50-300 ppm chelator,lived for many days
same,survival of fish with Nereistoxin,Boraras Micros fish [10]; 5 ppm Nereistoxin + 50-300 ppm chelator,lived for many days (up to weeks)
same,concentration that inactivates toxins/neurotoxins while preventing proliferation of microorganisms,[11],over 30 ppm
same,survival of fish in CuCl2 with chelator,Boraras Micros fish [4],will not die after several weeks
same,time until headache symptoms significantly reduced,headache,about 2 hours
same,survival of fish,Boraras Micros fish [5]; [12],lived for many days
same,appearance of water after 6 days,[6],clear; also recorded: transparent
same,fish outcome after 6 days,[6],lived; also recorded: did not die
same,concentration in host blood/tissue fluid/alveolar fluid above which ability to inhibit/kill pathogenic bacteria far exceeds Bactrim 10 ppm/Ampicillin 20 ppm,[6]; in vivo,above 60 ppm
